{"source": "patent US5527777A", "about": "“Peptide compounds, in particular LHRH-antagonists” (Schering Aktiengesellschaft, priority 1991, dated 1996)", "key": {"[1]": {"tested_on": "serum testosterone concentration", "experiment": "testosterone-reducing potential in intact adult male rats (serum testosterone, radioimmunological)", "type": "in vivo", "conditions": "subcutaneous, one time, 0.25 mg/kg of body weight, after 24 hours", "experimental": "The peptide compounds are to be used in the treatment of benign enlargements of the prostate and carcinomas of the prostate. Therefore, the testosterone-reducing potential is tested. For this purpose, generally clearly higher dosages of one and the same antagonists are required than for the induction of an inhibition of ovulation. In the test process used here, intact adult male rats are subcutaneously treated one time with the substance to be tested. The effect on the serum testosterone concentration after 24 hours is determined radioimmunologically (kit of the Biermann company)."}, "Mastzell": {"tested_on": "Mastzell", "experiment": "Mastzell test (release of histamine)", "type": "cell-based", "conditions": "ED50 still not achieved at highest stated concentration"}, "release of histamine": {"tested_on": "release of histamine", "experiment": "in vivo observation of edematous changes on face/extremities as sign of histamine release", "design": "species or system rats", "conditions": "0.1 to 5 mg/kg of body weight subcutaneously", "excerpt": "In addition to the reduction of the testosterone value, the release of histamine is of importance. […] This in vivo test is ascribed considerably more relevance than the Mastzell test, used in many cases."}}, "data": [{"substance": "Ac--D--Nal--D--Cpa--D--Pal--Ser--Tyr--D--Cit--Leu--Ahx(Mor)--Pro--D--Ala--NH2 [Example 13]", "values": [{"measurement": "inhibition of serum testosterone concentration in comparison to the control", "setting": "[1]", "value": 26, "unit": "%"}, {"measurement": "ED50 of the release of histamine", "setting": "Mastzell", "value": "> 10", "unit": "µg/mL"}, {"measurement": "edematous changes on the face and/or on the extremities (typical of histamine release)", "setting": "release of histamine", "value": "occur at none of the tested dosages"}]}]}
